Measurements published in PubChem BioAssay AID248 (DTP/NCI, 2004).
Several values for one entry are separate records, joined by “and”; a condition that tells them apart may be missing. Equal values may be shown once. Toxic doses and inconclusive results are not listed. Rule as the data show it: active = T/C of 150% or more; inactive = T/C below 125%.

System: L1210 leukemia ip in BDF1 mice, survival T/C
Assay: NCI In Vivo Anticancer Drug Screen. Data for tumor model L1210 Leukemia (intraperitoneal) in B6D2F1 (BDF1) mice
Conditions: endpoint: mean survival time, higher = longer survival
Procedure, shortened: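 Ratio derived from survival: compound-dosed mice over vehicle-dosed mice, all bearing a transplantable tumor.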

[1] = dose: 100.0 mg/kg/injection, schedule: Q01DX001 (ip), vehicle: acetone
[2] = dose: 200.0 mg/kg/injection, schedule: Q01DX001 (ip), vehicle: acetone
[3] = dose: 400.0 mg/kg/injection, schedule: Q01DX001 (ip), vehicle: acetone
[4] = dose: 100.0 mg/kg/injection, schedule: Q04DX003 (ip), vehicle: saline with Tween-80
[5] = dose: 200.0 mg/kg/injection, schedule: Q04DX003 (ip), vehicle: saline with Tween-80
[6] = dose: 400.0 mg/kg/injection, schedule: Q04DX003 (ip), vehicle: saline with Tween-80
[7] = dose: 100.0 mg/kg/injection, schedule: Q01DX009 (ip), vehicle: saline with Tween-80
[8] = dose: 200.0 mg/kg/injection, schedule: Q01DX009 (ip), vehicle: saline with Tween-80
[9] = dose: 400.0 mg/kg/injection, schedule: Q01DX009 (ip), vehicle: saline with Tween-80
[10] = dose: 100.0 mg/kg/injection, schedule: Q01DX001 (ip), vehicle: Klucel (hydroxypropylcellulose) (HPC)
[11] = dose: 200.0 mg/kg/injection, schedule: Q01DX001 (ip), vehicle: Klucel (hydroxypropylcellulose) (HPC)
[12] = dose: 400.0 mg/kg/injection, schedule: Q01DX001 (ip), vehicle: Klucel (hydroxypropylcellulose) (HPC)
[13] = dose: 25.0 mg/kg/injection, schedule: Q04DX002 (ip), vehicle: saline
[14] = dose: 50.0 mg/kg/injection, schedule: Q04DX002 (ip), vehicle: saline
[15] = dose: 200.0 mg/kg/injection, schedule: Q04DX002 (ip), vehicle: saline
[16] = dose: 400.0 mg/kg/injection, schedule: Q04DX002 (ip), vehicle: saline
[17] = dose: 100.0 mg/kg/injection, schedule: Q01DX001 (ip), vehicle: saline
[18] = dose: 200.0 mg/kg/injection, schedule: Q01DX001 (ip), vehicle: saline
[19] = dose: 50.0 mg/kg/injection, schedule: Q01DX001 (ip), vehicle: saline
[20] = dose: 100.0 mg/kg/injection, schedule: Q04DX003 (ip), vehicle: Klucel (hydroxypropylcellulose) (HPC)
[21] = dose: 200.0 mg/kg/injection, schedule: Q04DX003 (ip), vehicle: Klucel (hydroxypropylcellulose) (HPC)
[22] = dose: 100.0 mg/kg/injection, schedule: Q04DX002 (ip), vehicle: saline
[23] = dose: 100.0 mg/kg/injection, schedule: Q04DX002 (ip), vehicle: saline with Tween-80
[24] = dose: 200.0 mg/kg/injection, schedule: Q04DX002 (ip), vehicle: saline with Tween-80
[25] = dose: 400.0 mg/kg/injection, schedule: Q04DX002 (ip), vehicle: saline with Tween-80

Measured: T/C

OCCOC1CCCC=C1Cl (stereo not drawn)
inactive: [1] 95 % of control | [2] 98 % of control | [3] 91 % of control

O=C(O)c1cc2ccccc2[nH]1
inactive: [4] 95 % of control | [5] 95 % of control | [6] 90 % of control

O=C1c2ccccc2S(=O)(=O)N1CC(O)COc1ccc(Cl)cc1 (stereo not drawn)
inactive: [7] 93 % of control | [8] 102 % of control | [9] 101 % of control

Cc1cc([N+](=O)[O-])cc(Cl)n1
inactive: [10] 97 % of control | [11] 102 % of control | [12] 100 % of control

O/N=C(\Cl)c1ccc(/C(Cl)=N\O)cc1
inactive: dose: 5.0 mg/kg/injection, schedule: Q01DX001 (ip), vehicle: saline 111 % of control | dose: 10.0 mg/kg/injection, schedule: Q01DX001 (ip), vehicle: saline 105 % of control | dose: 20.0 mg/kg/injection, schedule: Q01DX001 (ip), vehicle: saline 100 % of control

COC(=O)Nc1ccccc1[N+](=O)[O-]
inactive: dose: 100.0 mg/kg/injection, schedule: Q04DX003 (ip), vehicle: other 103 % of control | dose: 200.0 mg/kg/injection, schedule: Q04DX003 (ip), vehicle: other 101 % of control | dose: 400.0 mg/kg/injection, schedule: Q04DX003 (ip), vehicle: other 111 % of control

COc1ccc2ccc3ccc(OC)c(OC(C)=O)c3c2c1
inactive: dose: 100.0 mg/kg/injection, schedule: Q01DX001 (ip), vehicle: steriod suspending solution 94 % of control | dose: 200.0 mg/kg/injection, schedule: Q01DX001 (ip), vehicle: steriod suspending solution 105 % of control | dose: 400.0 mg/kg/injection, schedule: Q01DX001 (ip), vehicle: steriod suspending solution 108 % of control

COC(=O)C1(C)CCCC2(C)c3cc(O)c(C(C)C)cc3CCC12 (stereo not drawn)
inactive: [1] 88 % of control | [2] 90 % of control | [3] 93 % of control

CC1(C(O)CO)OCCO1 (stereo not drawn)
inactive: [13] 110 % of control | [14] 103 % of control | [15] 107 % of control and 110 % of control | [16] 117 % of control

NC1=NCCN1c1cccc2ccccc12
inactive: dose: 75.0 mg/kg/injection, schedule: Q01DX001 (ip), vehicle: carboxymethylcellulose (CMC) 102 % of control | dose: 150.0 mg/kg/injection, schedule: Q01DX001 (ip), vehicle: carboxymethylcellulose (CMC) 98 % of control

O=C(O)c1ccc(/C=N/NC(=O)c2cccc3ccccc23)cc1
inactive: [17] 87 % of control | [18] 87 % of control

NNC(=O)CNc1cccc(I)c1
inactive: dose: 100.0 mg/kg/injection, schedule: Q04DX002 (ip), vehicle: Klucel (hydroxypropylcellulose) (HPC) 102 % of control | dose: 200.0 mg/kg/injection, schedule: Q04DX002 (ip), vehicle: Klucel (hydroxypropylcellulose) (HPC) 95 % of control | dose: 400.0 mg/kg/injection, schedule: Q04DX002 (ip), vehicle: Klucel (hydroxypropylcellulose) (HPC) 109 % of control

CCN(CC)C(=O)/C=C/c1ccccc1
inactive: [19] 102 % of control | [17] 96 % of control | [18] 96 % of control

CCOC(=O)C(CSCSC)NC(=O)/C=C/c1cccnc1 (stereo not drawn)
inactive: [7] 101 % of control | [4] 93 % of control | [8] 98 % of control | [5] 97 % of control | [9] 90 % of control | [6] 90 % of control

O=C1c2ccccc2C(=O)N1OCCCCON1C(=O)c2ccccc2C1=O
inactive: [19] 100 % of control | [17] 106 % of control | [18] 106 % of control | dose: 400.0 mg/kg/injection, schedule: Q01DX001 (ip), vehicle: saline 102 % of control

COC(=O)CCC(NC(=O)OCc1ccccc1)C(=O)O (stereo not drawn)
inactive: [20] 99 % of control | [21] 112 % of control

CC(=O)NC(CC(N)=O)C(=O)O (stereo not drawn)
inactive: [22] 96 % of control | [15] 99 % of control | [16] 99 % of control

O=S(=O)(O)c1ccc2cc(N=Nc3c(O)ccc4ccccc34)ccc2c1
inactive: dose: 100.0 mg/kg/injection, schedule: Q04DX003 (ip), vehicle: carboxymethylcellulose (CMC) 95 % of control | dose: 200.0 mg/kg/injection, schedule: Q04DX003 (ip), vehicle: carboxymethylcellulose (CMC) 103 % of control | dose: 400.0 mg/kg/injection, schedule: Q04DX003 (ip), vehicle: carboxymethylcellulose (CMC) 95 % of control

C=C1CCC(C)(C2(c3ccccc3)OCCO2)CC1
inactive: [23] 98 % of control | [24] 95 % of control | [25] 91 % of control

CCCCNC(=O)Nc1ccccc1Cl
inactive: [10] 96 % of control | [11] 99 % of control | [12] 102 % of control

COc1ccccc1-n1c(=O)c(N=Nc2ccccc2)c(O)n(-c2ccccc2Cl)c1=S
inactive: dose: 50.0 mg/kg/injection, schedule: Q04DX003 (ip), vehicle: saline with Tween-80 94 % of control | [4] 94 % of control

Cn1c(N)cc(=O)n(C)c1=O
inactive: [10] 112 % of control | [11] 107 % of control | [12] 109 % of control

CCCCCCCCCCCCCC[n+]1ccc(C#N)cc1
inactive: dose: 7.5 mg/kg/injection, schedule: Q04DX003 (ip), vehicle: saline 101 % of control | dose: 15.0 mg/kg/injection, schedule: Q04DX003 (ip), vehicle: saline 95 % of control | dose: 30.0 mg/kg/injection, schedule: Q04DX003 (ip), vehicle: saline 96 % of control

COC1COC(OC)C(OC)C1OC (stereo not drawn)
inactive: [13] 87 % of control | [14] 104 % of control | [22] 90 % of control

CCOC(=O)C[n+]1cccc(Br)c1
inactive: dose: 100.0 mg/kg/injection, schedule: Q01DX001 (ip), vehicle: carboxymethylcellulose (CMC) 91 % of control | dose: 200.0 mg/kg/injection, schedule: Q01DX001 (ip), vehicle: carboxymethylcellulose (CMC) 104 % of control | dose: 400.0 mg/kg/injection, schedule: Q01DX001 (ip), vehicle: carboxymethylcellulose (CMC) 104 % of control

O=C(NC/C(Br)=C/Br)Nc1cccc2ccccc12
inactive: [23] 97 % of control | [24] 90 % of control | [25] 97 % of control

CSC(SC)C(O)C(O)C(O)C(O)CO (stereo not drawn)
inactive: [14] 103 % of control | [22] 113 % of control | [15] 92 % of control

CCC(c1ccc(OC)cc1)C(O)(CC)c1ccc(OC)cc1 (stereo not drawn)
inactive: [20] 98 % of control | [21] 98 % of control | dose: 400.0 mg/kg/injection, schedule: Q04DX003 (ip), vehicle: Klucel (hydroxypropylcellulose) (HPC) 102 % of control

BrP(Nc1ccccc1)(c1ccccc1)(c1ccccc1)c1ccccc1
inactive: dose: 10.0 mg/kg/injection, schedule: Q01DX001 (ip), vehicle: acetone 100 % of control | dose: 20.0 mg/kg/injection, schedule: Q01DX001 (ip), vehicle: acetone 101 % of control | dose: 40.0 mg/kg/injection, schedule: Q01DX001 (ip), vehicle: acetone 91 % of control
